Results reported in the COVID Moonshot data (paper PMC11187573), “Identification of SARS-CoV-2 Mpro inhibitors through deep reinforcement learning for de novo drug design and computational chemistry approaches” (RSC Medicinal Chemistry, 2024).

How the values were obtained:
[1] = target: SARS-CoV-2 Main Protease (SARS-CoV-2) (UniProt P0DTD1)
Protocol: Briefly, compounds were seeded into assay-ready plates (Greiner 384PP, cat# 781280) using an ECHO 650T dispenser and DMSO was back-filled for a uniform concentration in assay plates (DMSO concentration < 1%, final volume = 500 nL.). […] After a quick centrifugation step (1000 rpm, 15 s) the plate is incubated for 15 min at room temperature. […] After centrifugation (1000 rpm, 14 s) the reaction is incubated for 10 min (11-mer) or 5 min (37-mer) at room temperature before quenching with 10 % formic acid. The reactions are analysed with MS using RapidFire (RF) 365 high-throughput sampling robot (Agilent) connected to an iFunnel Agilent 6550 accurate mass quadrupole time-of-flight (Q-TOF) mass spectrometer using electrospray. […] Dose response curves uses an 11-point range of 100--0.0017 µM inhibitor concentrations. RapidFire integrator software (Agilent) was used to extract the charged states from the total ion chromatogram data followed by peak integration. For the 11-mer peptide the m/z (+1) charge states of both the substrate (1191.67 Da) and cleaved N-terminal product TSAVLQ (617.34 Da) were used and the 37-mer peptide the m/z (+2) charge states of the substrate (3960.94 Da) and m/z (+1) of the cleaved C-terminal product [sequence] (1125.57 Da). Percentage conversion (product peak integral / (product peak integral + substrate peak integral))*100) and percentage inhibitions were calculated and normalised against DMSO control with deduction of any background signal in Microsoft Excel. IC50s were calculated using Levenberg–Marquardt algorithm used to fit a restrained Hill equation to the dose-response data with both GraphPad PRISM and CDD.

[2] = target: SARS-CoV-2 Main Protease (SARS-CoV-2) (UniProt P0DTD1); remark: listed apart in the source

SMILES: O=C(CCl)N1CCN(Cc2cccc(Cl)c2)C[C@@H]1Cc1ccccc1 (stereo in doubt)
- relative solubility at 20 uM: 0.97
- relative solubility at 100 uM: 0.92
- IC50 [1]: 18.9 µM
- inhibition ([1]; 50.0 µM): 66.6%
- inhibition ([2]; 20.0 µM): 22.5%
- inhibition ([2]; 50.0 µM): 45.2%

SMILES: CC(=O)N1CCN(CC(=O)Nc2cccc(S(N)(=O)=O)c2)CC1
- relative solubility at 20 uM: 1
- relative solubility at 100 uM: 1
- inhibition ([1]; 20.0 µM): 0%
- inhibition ([2]; 20.0 µM): -3.12%
- inhibition ([2]; 50.0 µM): 2.63%

SMILES: O=C(CC(=O)N1CCOCC1)NC1CCCCC1
- relative solubility at 20 uM: 0.99
- relative solubility at 100 uM: 1
- inhibition ([1]; 20.0 µM): 0%
- inhibition ([1]; 50.0 µM): 0%
- inhibition ([2]; 20.0 µM): 19.8%
- inhibition ([2]; 50.0 µM): 6.01%

SMILES: CC(=O)Nc1ccc(NCC(=O)Nc2cnccc2C)cc1
- relative solubility at 20 uM: 0.96
- relative solubility at 100 uM: 0.9
- inhibition ([1]; 50.0 µM): 0%
- inhibition ([2]; 20.0 µM): -2.21%
- inhibition ([2]; 50.0 µM): -24.3%

SMILES: O=C(c1cc(=O)[nH]c2ccccc12)N1CCN(S(=O)(=O)c2ccccc2)CC1
- relative solubility at 20 uM: 0.98
- relative solubility at 100 uM: 0.97
- inhibition ([1]; 50.0 µM): 3.07%
- inhibition ([2]; 20.0 µM): 16.1%
- inhibition ([2]; 50.0 µM): 40.7%

SMILES: C#CCOc1ccc(N(C(=O)C=C)C(C(=O)NC(C)(C)C)c2cccnc2)cc1 (stereo unspecified)
- relative solubility at 20 uM: 1
- relative solubility at 100 uM: 1
- inhibition ([1]; 20.0 µM): 0%
- inhibition ([2]; 20.0 µM): -13.4%
- inhibition ([2]; 50.0 µM): -14.8%

SMILES: COc1cccc2c1OCC(NC(=O)c1cc(=O)[nH]c3ccc(F)cc13)C2 (stereo unspecified)
- relative solubility at 20 uM: 0.96
- relative solubility at 100 uM: 0.81
- inhibition ([1]; 50.0 µM): 11%
- inhibition ([2]; 20.0 µM): 2.25%
- inhibition ([2]; 50.0 µM): 19%

SMILES: O=C(CCl)Nc1nc2c(S(=O)(=O)NCCc3ccccc3)cccc2s1
- relative solubility at 20 uM: 0.89
- relative solubility at 100 uM: 0.66
- IC50 [1]: 8.55 µM
- inhibition ([1]; 50.0 µM): 80.3%
- IC50 [2]: 13.9 µM
- inhibition ([2]; 20.0 µM): 58%
- inhibition ([2]; 50.0 µM): 74.5%

SMILES: C=CC(=O)N(c1ccc2cc[nH]c2c1)C(C(=O)NC(C)(C)C)c1cccnc1 (stereo unspecified)
- relative solubility at 20 uM: 0.84
- relative solubility at 100 uM: 0.93
- inhibition ([1]; 20.0 µM): 0%
- inhibition ([2]; 20.0 µM): 5.38%
- inhibition ([2]; 50.0 µM): 10.5%

SMILES: C=CC(=O)N(c1ccc2ncsc2c1)C(C(=O)Nc1ccc(Cl)cc1)c1cccnc1 (stereo unspecified)
- relative solubility at 20 uM: 0.87
- relative solubility at 100 uM: 0.69
- inhibition ([1]; 20.0 µM): 2.57%
- inhibition ([2]; 20.0 µM): 8.95%
- inhibition ([2]; 50.0 µM): 25.3%

SMILES: Cc1ccccc1NC1CCN(c2ccc(S(N)(=O)=O)cc2)CC1
- relative solubility at 20 uM: 0.91
- relative solubility at 100 uM: 0.91
- inhibition ([1]; 20.0 µM): 25.2%
- inhibition ([1]; 50.0 µM): 37.6%
- inhibition ([2]; 20.0 µM): 4.98%
- inhibition ([2]; 50.0 µM): 7.22%

SMILES: CN(CC1COc2ccccc2O1)C(=O)c1cc(=O)[nH]c2ccc(F)cc12 (stereo unspecified)
- relative solubility at 20 uM: 0.99
- relative solubility at 100 uM: 0.99
- inhibition ([1]; 50.0 µM): 0%
- inhibition ([2]; 20.0 µM): -4.21%
- inhibition ([2]; 50.0 µM): 1.67%

SMILES: Cc1ccncc1NC(=O)CN1C(=O)COc2ccc(Cl)cc21
- relative solubility at 20 uM: 0.99
- relative solubility at 100 uM: 0.99
- IC50 [1]: 38.9 µM
- inhibition ([1]; 50.0 µM): 67.2%
- inhibition ([2]; 20.0 µM): 32.8%
- inhibition ([2]; 50.0 µM): 49.3%

SMILES: C=CC(=O)N(c1ccc(C(C)(C)C)cc1)C(C(=O)Nc1ccc2c(c1)OCCO2)c1cccnc1 (stereo unspecified)
- relative solubility at 20 uM: 0.98
- relative solubility at 100 uM: 0.75
- inhibition ([1]; 20.0 µM): 7.68%
- inhibition ([1]; 50.0 µM): 30.8%
- inhibition ([2]; 20.0 µM): 2.83%
- inhibition ([2]; 50.0 µM): 18.1%

SMILES: O=C(NCc1ccns1)Nc1cccc(CN2CCCC2=O)c1
- relative solubility at 20 uM: 1
- relative solubility at 100 uM: 0.97
- inhibition ([1]; 20.0 µM): 0%
- inhibition ([1]; 50.0 µM): 0%
- inhibition ([2]; 20.0 µM): -0.28%
- inhibition ([2]; 50.0 µM): -2.05%

SMILES: CCCc1cc2c(cc1S(=O)(=O)N1CCN(c3ccccc3)CC1)OCO2
- relative solubility at 20 uM: 0.91
- relative solubility at 100 uM: 0.92
- IC50 [1]: 16 µM
- inhibition ([1]; 50.0 µM): 68.3%
- inhibition ([2]; 20.0 µM): 8.44%
- inhibition ([2]; 50.0 µM): -17.1%

SMILES: O=C(Cc1cccc(Cl)c1)Nc1nnn[nH]1
- relative solubility at 20 uM: 1
- relative solubility at 100 uM: 1
- inhibition ([1]; 50.0 µM): 27.2%
- inhibition ([2]; 20.0 µM): 23.3%
- inhibition ([2]; 50.0 µM): 49.1%

SMILES: Cc1noc(C)c1COc1ccccc1C(=O)NC(C)c1nnc2ncccn12 (stereo unspecified)
- relative solubility at 20 uM: 0.99
- relative solubility at 100 uM: 0.94
- inhibition ([1]; 20.0 µM): 0%
- inhibition ([1]; 50.0 µM): 18.5%
- inhibition ([2]; 20.0 µM): 2.22%
- inhibition ([2]; 50.0 µM): 8.28%

SMILES: Cc1ccc(NCc2cc(NC(=O)OC(C)(C)C)ccc2Br)cn1
- relative solubility at 20 uM: 0.9
- relative solubility at 100 uM: 0.7
- inhibition ([1]; 50.0 µM): 35.9%
- inhibition ([2]; 20.0 µM): -3.3%
- inhibition ([2]; 50.0 µM): 9.52%

SMILES: O=C(CC(=O)N1CCOCC1)Nc1ccccc1
- relative solubility at 20 uM: 1
- relative solubility at 100 uM: 1.01
- inhibition ([1]; 20.0 µM): 0%
- inhibition ([1]; 50.0 µM): 0%
- inhibition ([2]; 50.0 µM): -26.9%

SMILES: Cc1ccc(C)c(NC(=O)[C@H]2CNC(=O)C2)c1 (stereo in doubt)
- relative solubility at 20 uM: 0.98
- relative solubility at 100 uM: 0.98
- inhibition ([1]; 50.0 µM): 0%
- inhibition ([2]; 20.0 µM): -14.9%
- inhibition ([2]; 50.0 µM): -9.38%

SMILES: Cc1ccncc1NC(=O)Cc1cccc(Br)c1
- relative solubility at 20 uM: 1.01
- relative solubility at 100 uM: 1
- IC50 [1]: 15.9 µM
- inhibition ([1]; 50.0 µM): 98.3%
- inhibition ([2]; 20.0 µM): 56.2%
- inhibition ([2]; 50.0 µM): 77.7%

SMILES: CSc1ccncc1NC(=O)Cc1ccc2c(c1)CCCC2
- relative solubility at 20 uM: 0.99
- relative solubility at 100 uM: 0.67
- inhibition ([1]; 50.0 µM): 0%
- inhibition ([2]; 20.0 µM): -1.16%
- inhibition ([2]; 50.0 µM): 11.6%

SMILES: O=C(NCCc1ccc2c(c1)CCO2)NCc1cccc(N2C(=O)NC3(CCCC3)C2=O)c1
- relative solubility at 20 uM: 0.95
- relative solubility at 100 uM: 0.97
- inhibition ([1]; 50.0 µM): -30.5%
- inhibition ([2]; 20.0 µM): -29%
- inhibition ([2]; 50.0 µM): -12%

SMILES: Cc1ccncc1CC(=O)Nc1cccc(Cl)c1
- relative solubility at 20 uM: 1
- relative solubility at 100 uM: 1
- IC50 [1]: 26.4 µM
- inhibition ([1]; 50.0 µM): 88.6%
- inhibition ([2]; 20.0 µM): 42.2%
- inhibition ([2]; 50.0 µM): 67.4%

SMILES: O=C(Nc1cccnc1)Nc1cccc(Cl)c1
- relative solubility at 20 uM: 0.98
- relative solubility at 100 uM: 0.99
- inhibition ([1]; 50.0 µM): 44.1%
- inhibition ([2]; 20.0 µM): 12.9%
- inhibition ([2]; 50.0 µM): 30.9%

SMILES: CCOC(=O)c1nc(S(C)(=O)=O)ncc1Cl
- relative solubility at 20 uM: 0.99
- relative solubility at 100 uM: 0.99
- IC50 [1]: 1.04 µM
- inhibition ([1]; 50.0 µM): 100%
- inhibition ([2]; 20.0 µM): 96.9%
- inhibition ([2]; 50.0 µM): 98.5%

SMILES: Cc1ccccc1CN1CCN(C(=O)C(F)C(C)C)CC1 (stereo unspecified)
- relative solubility at 20 uM: 1
- relative solubility at 100 uM: 1
- inhibition ([1]; 20.0 µM): 0%
- inhibition ([1]; 50.0 µM): 10.3%
- inhibition ([2]; 20.0 µM): 2.74%
- inhibition ([2]; 50.0 µM): 6.7%

SMILES: CCOc1ccccc1OC1CCN(C(=O)c2cc(=O)[nH]c3ccc(F)cc23)C1 (stereo unspecified)
- relative solubility at 20 uM: 1
- relative solubility at 100 uM: 0.99
- inhibition ([1]; 50.0 µM): 0%
- inhibition ([2]; 20.0 µM): 6.76%
- inhibition ([2]; 50.0 µM): 18.2%

SMILES: O=C(NCc1noc2ccccc12)c1ccccc1OCC1CC1
- relative solubility at 20 uM: 1
- relative solubility at 100 uM: 0.64
- inhibition ([1]; 20.0 µM): 0%
- inhibition ([1]; 50.0 µM): 0%
- inhibition ([2]; 20.0 µM): 5.31%
- inhibition ([2]; 50.0 µM): 11.7%

SMILES: CC(C(=O)Nc1cccc(OC2CC(=O)N2)c1)c1cnccn1 (stereo unspecified)
- relative solubility at 20 uM: 1
- relative solubility at 100 uM: 1
- inhibition ([1]; 20.0 µM): 0%
- inhibition ([1]; 50.0 µM): 0%
- inhibition ([2]; 50.0 µM): 17%

SMILES: C=CC(=O)N1CCCC(c2nc3ccccc3s2)C1 (stereo unspecified)
- relative solubility at 20 uM: 0.99
- relative solubility at 100 uM: 0.99
- inhibition ([1]; 20.0 µM): 0%
- inhibition ([1]; 50.0 µM): 0%
- inhibition ([2]; 50.0 µM): 14.5%

SMILES: CCC(C)(C)CCN(Cc1ccsc1)C(=O)Cn1nnc2ccccc21
- relative solubility at 20 uM: 0.99
- relative solubility at 100 uM: 0.73
- inhibition ([1]; 20.0 µM): -4.79%
- inhibition ([1]; 50.0 µM): 40.1%
- inhibition ([2]; 50.0 µM): 48.3%

SMILES: NS(=O)(=O)c1ccc(N2CCC(c3ccncc3)CC2)cc1
- relative solubility at 20 uM: 1
- relative solubility at 100 uM: 0.94
- inhibition ([1]; 20.0 µM): 1.05%
- inhibition ([1]; 50.0 µM): 1.84%
- inhibition ([2]; 20.0 µM): 0.875%
- inhibition ([2]; 50.0 µM): 1.65%

SMILES: C=CC(=O)N(c1ccc(C2(C)CC2)cc1)C(C(=O)Nc1ccc(OC)cc1)c1cccnc1 (stereo unspecified)
- relative solubility at 20 uM: 0.96
- relative solubility at 100 uM: 0.62
- inhibition ([1]; 20.0 µM): 0%
- inhibition ([1]; 50.0 µM): 0%
- inhibition ([2]; 50.0 µM): 12.6%

SMILES: O=C(c1cc(=O)[nH]c2ccc(F)cc12)N1CCN(S(=O)(=O)c2cccc(Cl)c2)CC1
- relative solubility at 20 uM: 0.98
- relative solubility at 100 uM: 0.87
- inhibition ([1]; 50.0 µM): 52.8%
- inhibition ([2]; 20.0 µM): 1.39%
- inhibition ([2]; 50.0 µM): 25.7%

SMILES: O=C(Nc1ccccc1OC1CCN(Cc2ccccc2)CC1)C1CCN(C(=O)CCl)CC1
- relative solubility at 20 uM: 0.94
- relative solubility at 100 uM: 0.95
- inhibition ([1]; 50.0 µM): -1.57%
- inhibition ([2]; 20.0 µM): 6.3%
- inhibition ([2]; 50.0 µM): 16.5%
